Test results: paper PMC11596392, “Enhanced Antibacterial, Anti-Inflammatory, and Antibiofilm Activities of Tryptophan-Substituted Peptides Derived from Cecropin A-Melittin Hybrid Peptide BP100” (Molecules, 2024)

Legend:
[1] = test system: MDRPA (CCARM 2095) biofilm formation; assay type: cell-based, multidrug-resistant Pseudomonas aeruginosa; conditions: overnight 37 °C, crystal violet staining
From the text: Bacterial biofilms, comprising communities of bacterial cells encased in a matrix of polysaccharides and nucleic acids, present a significant challenge for conventional antibiotics due to the protective nature of this matrix. Biofilms can enhance bacterial resistance to antibiotics by up to 1000-fold compared to planktonic bacteria. To address this issue, there is an urgent need to discover and develop novel alternative therapeutic agents capable of effectively combating biofilm-forming bacteria. […] Our research specifically focused on evaluating the impact of BP100 and its analogs on biofilm formation and eradication using multidrug-resistant Pseudomonas aeruginosa (MDRPA), a common pathogen responsible for biofilm-mediated nosocomial infections. The adhered biomass was quantified using crystal violet staining, and the minimum biofilm inhibitory concentration (MBIC90) was determined as the lowest concentration required to inhibit 90% of biofilm growth relative to the positive control. […] Human cathelicidin LL-37 is well-documented for its potent antibiofilm properties.
The inhibitory activity of the peptides on biofilm formation was evaluated against multidrug-resistant Pseudomonas aeruginosa (MDRPA) (CCARM 2095) using a biofilm inhibition assay to determine the minimal biofilm inhibitory concentration (MBIC). Peptide solutions were serially diluted in sterile water and aliquoted (100 μL) into a 96-well Costar polypropylene plate (Corning Inc., Corning, NY, USA). An equal volume of MDRPA suspension in Mueller–Hinton Broth (MHB), adjusted to 1 × 10^6 CFU/mL, was added to each well, resulting in a final inoculum density of 5 × 10^5 CFU/mL. Following overnight incubation at 37 °C, bacterial growth was quantified by measuring the optical density (OD) at 595 nm. Planktonic cells were then discarded, and the attached biofilms were washed thrice with distilled water. Residual biofilms were stained with 0.1% crystal violet for five minutes, washed to remove non-adherent dye, and subsequently destained using 95% ethanol. The OD at 595 nm was measured again to assess the biofilm mass. Control wells contained untreated bacteria. The MBIC was defined as the lowest peptide concentration that inhibited any residual crystal violet staining or biofilm formation. All assays were conducted in triplicate to ensure reproducibility. This method allows for the quantitative assessment of the peptides’ ability to prevent biofilm formation, a critical virulence factor in many bacterial infections, particularly those caused by multidrug-resistant strains.

[2] = test system: preformed MDRPA (CCARM 2095) biofilms; assay type: cell-based, multidrug-resistant Pseudomonas aeruginosa; conditions: 24 h treatment
Method: While preventing biofilm formation on surfaces is crucial, treating established biofilm infections presents a significant challenge due to the extracellular polymeric substance (EPS) matrix hindering antibiotic penetration and the high cell density within mature biofilms. To address this challenge, we evaluated the ability of BP100 and its analogs to eradicate established MDRPA biofilms over a 24 h period. The minimum biofilm eradication concentration (MBEC90) was determined using crystal violet staining as the lowest concentration that reduced biomass by more than 90%. Among these peptides, BP5, BP6, BP7, BP8, BP9, BP11, and BP13 eradicated preformed MDRPA biofilms by more than 90% at a concentration of 8 μM (Figure 3c,d and Table 3).
The minimal biofilm eradication concentration (MBEC) for peptides against the multidrug-resistant Pseudomonas aeruginosa (MDRPA) (CCARM 2095) strain was assessed using the Calgary Biofilm Device (CBD), supplied by Innovotech, Edmonton, AB, Canada. A bacterial suspension with a density of (1 × 10^6) CFU/mL in (150 µL) of Luria–Bertani (LB) media was dispensed into each well of a 96-well microtiter plate, which was equipped with a peg lid (Innovotech, product code: 19111). This plate was incubated at 37 °C for 24 h with agitation at 110 rpm, promoting biofilm formation on the pegs. Subsequently, the peg lid was washed with phosphate-buffered saline (PBS, 0.01 M) and relocated to a fresh plate containing varying peptide concentrations (200 µL per well). The biofilms were then subjected to these peptides under the same incubation conditions. After another PBS rinse, the peg lid was moved to a recovery plate filled with (200 µL) of LB media per well. To detach the biofilms from the pegs, the recovery plate underwent sonication in a water bath for 10 to 15 min. Finally, the recovery plate was incubated at 37 °C for 24 h with agitation at 110 rpm, allowing any surviving bacteria to proliferate and cause turbidity. The MBEC is defined as the lowest concentration of peptides that inhibited turbidity formation in the recovery plate in comparison to sterility controls. This experiment was conducted in triplicate, and the median value from each trial was recorded.

bacterial strains = test: Geometric mean (GM) of MIC values over the bacterial strains; assay type: cell-based; conditions: over the 11 bacterial strains of Table 2
Method: The antibacterial efficacy of the synthesized peptides was evaluated by determining the minimal inhibitory concentrations (MICs) against six standard bacterial strains and five drug-resistant bacterial strains using the Clinical and Laboratory Standards Institute (CLSI) microdilution method. Melittin served as the positive control.
The minimal inhibitory concentrations (MICs) of the peptides against bacterial strains were determined using a modified broth-microdilution method in accordance with the National Committee for Clinical Laboratory Standards (NCCLS) guidelines. Overnight cultures were diluted in cation-adjusted Mueller–Hinton Broth (MHB) to achieve an inoculum density of 2 × 10^6 CFU/mL. A two-fold serial dilution of the peptide solution (100 μL) was introduced into microtiter plates, followed by the addition of 100 μL of bacterial suspension. The plates were then incubated at 37 °C for 24 h to determine the MICs. Wells containing only culture media served as negative controls, while those with added bacteria functioned as positive controls. The MIC, expressed in μM, was defined as the lowest peptide concentration that prevented visible bacterial growth. […]

MDRPA (CCARM 2095) = assay type: cell-based, multidrug-resistant Pseudomonas aeruginosa; conditions: checkerboard, 37 °C, 24 h
From the text: Multidrug-resistant pathogens pose a significant challenge to both human and animal health. The steady decline in the discovery of new antibiotics has exacerbated the difficulty in developing effective therapies for infection control. Consequently, there is an urgent need for alternative strategies that can combat pathogens without inducing drug resistance. One such strategy involves the combination of different antimicrobial agents. The effects of antimicrobial peptides (AMPs) combined with conventional antibiotics often surpass those of individual drugs. […] The primary advantage of synergistic combinations lies in their ability to lower the concentration of each antimicrobial agent required for effective antibacterial activity. This approach offers several benefits, including reduced production costs, a decreased risk of adverse side effects, diminished toxicity to mammalian cells, and a lower likelihood of drug resistance development. In light of these potential advantages, we investigated the synergistic effects of BP100 and the five selected analogs in combination with ciprofloxacin against multidrug-resistant Pseudomonas aeruginosa (MDRPA) using a checkerboard synergy assay. Ciprofloxacin, an antibiotic belonging to the fluoroquinolone class, is commonly used to treat various bacterial infections, including urinary tract infections and pneumonia. It exerts a bactericidal effect by inhibiting bacterial DNA gyrase, thereby disrupting DNA replication and transcription […]. The fractional inhibitory concentration index (FICI) results for BP100 and its selected analogs, when paired with ciprofloxacin against MDRPA, are detailed in Table 5. […] Such combinations may offer a valuable approach to enhancing the efficacy of existing antibiotics and potentially mitigating the development of antimicrobial resistance.
The synergistic effects of peptide-antibiotic combinations against methicillin-resistant Staphylococcus aureus (MRSA; CCARM 3089) and multidrug-resistant Pseudomonas aeruginosa (MDRPA; CCARM 2095) were evaluated using the fractional inhibitory concentration index (FICI) method. Antibiotics and peptides were subjected to two-fold serial dilutions, mixed in equal ratios, and combined with a bacterial suspension adjusted to approximately 10^6 CFU/mL. The resulting mixtures were distributed into microplate wells and incubated at 37 °C with orbital shaking at 200 rpm for 24 h. Bacterial growth was monitored by measuring the optical density at 600 nm (OD600). The FICI was calculated using the broth microdilution checkerboard method, defined as the sum of the ratios of the minimum inhibitory concentrations (MICs) of each agent in combination to their individual MICs, according to the following equation: FICI = (MIC of antibiotic in combination/MIC of antibiotic alone) + (MIC of peptide in combination/MIC of peptide alone). The interpretation of FICI values was as follows: FICI ≤ 0.5 indicates synergy; 0.5 < FICI ≤ 1.0 indicates an additive effect; 1.0 < FICI ≤ 4.0 indicates indifference; and FICI > 4.0 indicates antagonism.

CC[C@H](C)[C@H](NC(=O)[C@H](CCCCN)NC(=O)[C@H](CCC(=O)O)NC(=O)[C@H](CCCCN)NC(=O)[C@H](CO)NC(=O)[C@H](CCCCN)NC(=O)[C@H](CCCNC(=N)N)NC(=O)[C@H](Cc1ccccc1)NC(=O)[C@H](Cc1ccccc1)NC(=O)[C@H](CC(=O)O)NC(=O)CNC(=O)[C@H](CC(C)C)NC(=O)[C@@H](N)CC(C)C)C(=O)NCC(=O)N[C@@H](CCCCN)C(=O)N[C@@H](CCC(=O)O)C(=O)N[C@@H](Cc1ccccc1)C(=O)N[C@@H](CCCCN)C(=O)N[C@@H](CCCNC(=N)N)C(=O)N[C@H](C(=O)N[C@H](C(=O)N[C@@H](CCC(N)=O)C(=O)N[C@@H](CCCNC(=N)N)C(=O)N[C@H](C(=O)N[C@@H](CCCCN)C(=O)N[C@@H](CC(=O)O)C(=O)N[C@@H](Cc1ccccc1)C(=O)N[C@@H](CC(C)C)C(=O)N[C@@H](CCCNC(=N)N)C(=O)N[C@@H](CC(N)=O)C(=O)N[C@@H](CC(C)C)C(=O)N[C@H](C(=O)N1CCC[C@H]1C(=O)N[C@@H](CCCNC(=N)N)C(=O)N[C@H](C(=O)N[C@@H](CCC(=O)O)C(=O)N[C@@H](CO)C(=O)O)[C@@H](C)O)C(C)C)[C@@H](C)CC)C(C)C)[C@@H](C)CC [LL-37, reference compound]
MBIC50 ([1]; 50% inhibition): 32 to 64 µM
MBIC90 ([1]; 90% inhibition): 64 µM
MBEC50 ([2]; 50% eradication): 32 µM
MBEC90 ([2]; 90% eradication): > 64 µM

CC[C@H](C)[C@H](NC(=O)CN)C(=O)NCC(=O)N[C@@H](C)C(=O)N[C@H](C(=O)N[C@@H](CC(C)C)C(=O)N[C@@H](CCCCN)C(=O)N[C@H](C(=O)N[C@@H](CC(C)C)C(=O)N[C@H](C(=O)N[C@H](C(=O)NCC(=O)N[C@@H](CC(C)C)C(=O)N1CCC[C@H]1C(=O)N[C@@H](C)C(=O)N[C@@H](CC(C)C)C(=O)N[C@H](C(=O)N[C@@H](CO)C(=O)N[C@@H](Cc1c[nH]c2ccccc12)C(=O)N[C@H](C(=O)N[C@@H](CCCCN)C(=O)N[C@@H](CCCNC(=N)N)C(=O)N[C@@H](CCCCN)C(=O)N[C@@H](CCCNC(=N)N)C(=O)N[C@@H](CCC(N)=O)C(=O)N[C@@H](CCC(N)=O)C(N)=O)[C@@H](C)CC)[C@@H](C)CC)[C@@H](C)O)[C@@H](C)O)C(C)C)C(C)C [ME, melittin]
GM (geometric mean of MIC values) (bacterial strains): 24.0 µM

O=C(O)c1cn(C2CC2)c2cc(N3CCNCC3)c(F)cc2c1=O [ciprofloxacin, reference compound]
MICB: MIC of ciprofloxacin alone (MDRPA (CCARM 2095)): 2048 µg/mL
